Source: ChEMBL document CHEMBL1909046, “DrugMatrix in vitro pharmacology data”

Experiments:
Carbonic anhydrase 2 = Carbonic anhydrase 2 (Homo sapiens, UniProt P00918); test: DRUGMATRIX: Carbonic Anhydrase II enzyme inhibition (substrate: 4-Nitrophenyl acetate (4-NPA)); type: tissue-based, Erythrocyte; details: erythrocyte; Not Active = under 50% inhibition at 10 µM
[1] = target: T1, Muscarinic acetylcholine receptor M5 (Homo sapiens, UniProt P08912); type: cell membranes, Membrane; details: cho-k1; also: in other assays of this panel Not Active means under 50% inhibition at 10 µM
T1 sequence (P08912 whole entry): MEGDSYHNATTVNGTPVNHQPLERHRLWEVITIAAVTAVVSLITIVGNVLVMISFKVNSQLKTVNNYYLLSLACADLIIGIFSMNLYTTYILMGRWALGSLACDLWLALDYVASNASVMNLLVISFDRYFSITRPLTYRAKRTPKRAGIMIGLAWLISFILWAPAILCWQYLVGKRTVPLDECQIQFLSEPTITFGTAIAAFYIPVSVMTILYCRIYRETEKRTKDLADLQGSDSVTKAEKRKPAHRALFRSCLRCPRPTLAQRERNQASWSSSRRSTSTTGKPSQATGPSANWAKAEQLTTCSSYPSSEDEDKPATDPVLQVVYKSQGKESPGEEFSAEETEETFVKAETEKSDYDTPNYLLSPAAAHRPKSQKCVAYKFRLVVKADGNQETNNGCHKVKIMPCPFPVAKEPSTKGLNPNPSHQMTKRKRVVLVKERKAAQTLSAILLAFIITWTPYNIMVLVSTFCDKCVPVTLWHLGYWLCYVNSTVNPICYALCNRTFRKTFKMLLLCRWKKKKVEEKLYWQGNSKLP

Cytochrome P450 2C19 = Cytochrome P450 2C19 (Homo sapiens, UniProt P33261); details: bti-tn-5b1-4; also: in other assays of this panel Not Active means under 50% inhibition at 10 µM
[2] = DRUGMATRIX: Calcium Channel Type L, Dihydropyridine radioligand binding (ligand: [3H] Nitrendipine); type: cell membranes, Rattus norvegicus, Wistar, Cerebral cortex, Membrane; details: Not Active = under 50% inhibition at 10 µM
Mu-type opioid receptor = Mu-type opioid receptor (Homo sapiens, UniProt P35372); test: DRUGMATRIX: Opiate mu (OP3, MOP) radioligand binding (ligand: [3H] Diprenorphine); type: cell membranes, CHO-K1, Membrane; details: cho-k1; Not Active = under 50% inhibition at 10 µM
Leukotriene C4 synthase = target: T2, Leukotriene C4 synthase (Cavia porcellus, UniProt A6XA80); type: tissue-based, Lung;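 also: enzyme inhibition assay of leukotriene C4 synthase, using LTA4 as the substrate; in other assays of this panel Not Active means under 50% inhibition at 10 µM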
T2 sequence (A6XA80 whole entry): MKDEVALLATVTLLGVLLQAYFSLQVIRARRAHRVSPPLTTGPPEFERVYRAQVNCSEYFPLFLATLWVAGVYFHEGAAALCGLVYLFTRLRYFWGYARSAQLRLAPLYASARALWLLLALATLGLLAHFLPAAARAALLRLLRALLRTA

Melanocortin receptor 5 = Melanocortin receptor 5 (Homo sapiens, UniProt P33032); type: cell membranes, HEK293, Membrane; details: hek293; also: in other assays of this panel Not Active means under 50% inhibition at 10 µM
Sequence of Melanocortin receptor 5 (P33032 whole entry): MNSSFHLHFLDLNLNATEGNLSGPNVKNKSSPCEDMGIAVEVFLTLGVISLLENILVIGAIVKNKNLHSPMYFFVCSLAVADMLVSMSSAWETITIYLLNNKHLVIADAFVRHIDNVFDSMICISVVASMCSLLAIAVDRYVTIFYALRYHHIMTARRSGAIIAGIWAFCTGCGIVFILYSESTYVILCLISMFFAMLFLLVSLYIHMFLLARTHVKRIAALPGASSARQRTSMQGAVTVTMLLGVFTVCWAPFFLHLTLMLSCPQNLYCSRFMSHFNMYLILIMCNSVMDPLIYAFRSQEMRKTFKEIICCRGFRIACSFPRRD

Sequence of Mu-type opioid receptor (P35372 whole entry): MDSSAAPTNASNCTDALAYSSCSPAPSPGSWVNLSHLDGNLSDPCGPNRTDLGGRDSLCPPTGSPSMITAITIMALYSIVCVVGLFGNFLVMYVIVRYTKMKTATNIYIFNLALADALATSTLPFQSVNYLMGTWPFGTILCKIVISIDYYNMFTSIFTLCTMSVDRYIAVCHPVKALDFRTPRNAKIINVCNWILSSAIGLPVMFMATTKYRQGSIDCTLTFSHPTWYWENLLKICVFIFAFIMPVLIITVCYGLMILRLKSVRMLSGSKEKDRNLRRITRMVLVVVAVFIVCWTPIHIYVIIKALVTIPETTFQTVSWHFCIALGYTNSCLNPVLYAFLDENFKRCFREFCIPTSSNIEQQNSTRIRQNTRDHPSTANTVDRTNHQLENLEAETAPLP
Sequence of Cytochrome P450 2C19 (P33261 whole entry): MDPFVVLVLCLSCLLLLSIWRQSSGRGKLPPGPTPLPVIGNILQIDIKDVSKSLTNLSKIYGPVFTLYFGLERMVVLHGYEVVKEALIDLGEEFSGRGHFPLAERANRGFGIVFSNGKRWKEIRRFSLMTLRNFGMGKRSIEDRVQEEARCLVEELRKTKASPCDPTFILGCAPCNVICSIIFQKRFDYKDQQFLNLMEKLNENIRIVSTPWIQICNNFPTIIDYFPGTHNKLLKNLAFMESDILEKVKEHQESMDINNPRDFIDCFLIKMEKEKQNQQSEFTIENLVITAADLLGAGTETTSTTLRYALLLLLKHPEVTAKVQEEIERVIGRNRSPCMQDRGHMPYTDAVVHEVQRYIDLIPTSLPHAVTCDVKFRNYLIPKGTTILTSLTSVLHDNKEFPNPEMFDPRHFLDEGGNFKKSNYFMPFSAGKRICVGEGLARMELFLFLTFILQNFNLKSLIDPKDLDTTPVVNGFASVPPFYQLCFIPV

O=C(/C=C/c1ccc(O)c(O)c1)OCCc1ccccc1 [CAFFEIC ACID PHENETHYL ESTER]
Not Active: IC50 (Carbonic anhydrase 2) | IC50 [1] | IC50 (Cytochrome P450 2C19) | Ki (Cytochrome P450 2C19) | IC50 [2] | Ki [2] | IC50 (Mu-type opioid receptor) | IC50 (Leukotriene C4 synthase) | IC50 (Melanocortin receptor 5)

COc1cc(CNC(=O)CCCC/C=C/C(C)C)ccc1O [CAPSAICIN]
Not Active: IC50 (Carbonic anhydrase 2) | IC50 [1] | IC50 (Cytochrome P450 2C19) | Ki (Cytochrome P450 2C19) | IC50 [2] | Ki [2] | IC50 (Mu-type opioid receptor) | IC50 (Leukotriene C4 synthase) | IC50 (Melanocortin receptor 5)

NC(=O)N1c2ccccc2C=Cc2ccccc21 [CARBAMAZEPINE]
Not Active: IC50 (Carbonic anhydrase 2) | IC50 [1] | IC50 (Cytochrome P450 2C19) | Ki (Cytochrome P450 2C19) | IC50 [2] | Ki [2] | IC50 (Mu-type opioid receptor) | IC50 (Leukotriene C4 synthase) | IC50 (Melanocortin receptor 5)

CCOC(=O)n1ccn(C)c1=S [CARBIMAZOLE]
Not Active: IC50 (Carbonic anhydrase 2) | IC50 [1] | IC50 (Cytochrome P450 2C19) | Ki (Cytochrome P450 2C19) | IC50 [2] | Ki [2] | IC50 (Mu-type opioid receptor) | IC50 (Leukotriene C4 synthase) | IC50 (Melanocortin receptor 5)

Oc1ccccc1O [CATECHOL]
Not Active: IC50 (Carbonic anhydrase 2) | IC50 [1] | IC50 (Cytochrome P450 2C19) | Ki (Cytochrome P450 2C19) | IC50 [2] | Ki [2] | IC50 (Mu-type opioid receptor) | IC50 (Leukotriene C4 synthase) | IC50 (Melanocortin receptor 5)

CO[C@@]1(NC(=O)CSCC#N)C(=O)N2C(C(=O)O)=C(CSc3nnnn3C)CS[C@@H]21 [CEFMETAZOLE]
Not Active: IC50 (Carbonic anhydrase 2) | IC50 [1] | IC50 (Cytochrome P450 2C19) | Ki (Cytochrome P450 2C19) | IC50 [2] | Ki [2] | IC50 (Mu-type opioid receptor) | IC50 (Leukotriene C4 synthase) | IC50 (Melanocortin receptor 5)

CN(C(=O)CCCOc1ccc2[nH]c(=O)ccc2c1)C1CCCCC1 [CILOSTAMIDE]
Not Active: IC50 (Carbonic anhydrase 2) | IC50 [1] | IC50 (Cytochrome P450 2C19) | Ki (Cytochrome P450 2C19) | IC50 [2] | Ki [2] | IC50 (Mu-type opioid receptor) | IC50 (Leukotriene C4 synthase) | IC50 (Melanocortin receptor 5)

CC(C)(Oc1ccc(C2CC2(Cl)Cl)cc1)C(=O)O (stereo unspecified) [CIPROFIBRATE]
Not Active: IC50 (Carbonic anhydrase 2) | IC50 [1] | IC50 (Cytochrome P450 2C19) | Ki (Cytochrome P450 2C19) | IC50 [2] | Ki [2] | IC50 (Mu-type opioid receptor) | IC50 (Leukotriene C4 synthase) | IC50 (Melanocortin receptor 5)

Nc1nc(Cl)nc2c1ncn2[C@H]1C[C@H](O)[C@@H](CO)O1 [CLADRIBINE]
Not Active: IC50 (Carbonic anhydrase 2) | IC50 [1] | IC50 (Cytochrome P450 2C19) | Ki (Cytochrome P450 2C19) | IC50 [2] | Ki [2] | IC50 (Mu-type opioid receptor) | IC50 (Leukotriene C4 synthase) | IC50 (Melanocortin receptor 5)
